Results taken from US20090203775A1, “Novel compound and a novel microorganism for producing the novel compound” (Haiyi Biotech Pte, Ltd., priority 2005, published 2009).

What was measured:
[1] = test system: L1210 (mouse leukemia cells); experiment: MTT assay, percentage of killing, L1210; type: cell-based; settings: 24~48 hours
Experimental: (§1) 1. Method: 3-[4,5-dimethyl(thiazol-2-yl)-3,5-diphery] tetradium bromide (MTT) assay. 2. Culture medium: RPMI-1640 medium containing 2% calf serum 3. Apparatus: (1) CO2 incubator, Sherton USA; (2) 318MC Enzyme analysis machine, SANCO Equipments Company Ltd. 4. Conditions of the culture: Temp. 37° C.; Concentration of CO2: 4.7%, culture duration: 24˜48 hours.

[2] = test system: A2780 (human ovary cancer cells); experiment: MTT assay, percentage of killing, A2780; type: cell-based; settings: 24~48 hours
Experimental: as §1

[3] = test system: MGC (human stomach cancer cells); experiment: MTT assay, percentage of killing, MGC; type: cell-based; settings: 24~48 hours
Experimental: as §1

[4] = test system: L1210, a kind of lymph leukemia cell; experiment: Ex vivo treatment of L1210 cells, then i.p. injection into mice; type: in vivo, BDF-1 mice
Experimental: Control: 6 BDF-1 mice, male, administer to each mouse 1×10^8 L1210, a kind of lymph leukemia cell, by intraperitoneal (i.p.) injection, (without the compound of formula (I) treatment); results are shown in FIG. 11.
Ex vivo test group: 6 BDF-1 mice, male, administer to each mouse 1×10^8 L1210 cells by i.p. injection, wherein the L1210 were treated with the compound of formula (I). The method of treating cells ex vivo: The concentration of the lyophilized powder injection of the compound of formula (I) is 7.5 mg/ml. It was diluted to 150 ug/ml with saline solution. A volume of 67 ul of the diluted injection solution is mixed with 1.5 ml L1210 cells and 0.433 ml saline to obtain in each […] of L1210 cells to contain 5 ug the compound. The mixture is placed at the room temperature for two hours.

Coxsakie B3 virus = experiment: in vitro; type: cell-based; settings: Coxsakie B3 virus in Veo cells
Experimental: Treatment of the sample: The sample was first dissolved in DMSO to appropriate concentration. The sample solutions were then diluted the samples in culture medium solution to obtain eight concentrations.
Methods: The Veo cells were cultured in 96-well plates. The cells were infected with Coxsakie B3 virus for 2 hours after 24 hours of incubation. The solution containing the virus was then discarded. The samples were then added into the wells at the concentrations with the appropriate controls. The cell pathological extent (CPE) was observed 36 hours later. The half inhibitory concentration (IC50) was calculated by using the method of Reed-Muench.
(1) “-” means that the sample has no anti Coxsakie B3 virus effect at the maximal dose with no toxicity. (2) TC50 indicates the half toxic concentration; IC50 indicates the half inhibitory concentration for the virus; SI indicates the selective index, calculated as the follow: SI=TC50/IC50

T. rubrum = experiment: Germicidal effect, MTT assay, T. rubrum; type: cell-based
Experimental: (§2) Aims: To observe the germicidal effect of the compound of formula (I) on T. rubrum, T. mentagrophytes, C. albicans and B. subtilis. Method: […] Concentration of the samples were: (1) 2 mg/ml; (2) 1 mg/ml; (3) 0.5 mg/ml; (4) 0.25 mg/ml; Volume of the sample: 50 ul/well.

T. mentagrophytes = experiment: Germicidal effect, MTT assay, T. mentagrophytes; type: cell-based
Experimental: as §2

B. subtilis = experiment: Germicidal effect, MTT assay, B. subtilis; type: cell-based
Experimental: as §2

O=C1CC[C@H](c2ccc(O)c3c2C(=O)C2OC2[C@H]3O)c2cccc(O)c21 (some centres unmarked) [compound of formula (I)]
percentage of killing ([1]; L1210, 312.5 ng/ml): 0%
percentage of killing ([1]; L1210, 625 ng/ml): 0%
percentage of killing ([1]; L1210, 1.25 ug/ml): 17.02%
percentage of killing ([1]; L1210, 2.5 ug/ml): 94.18%
percentage of killing ([1]; L1210, 5 ug/ml): 97.00%
percentage of killing ([2]; A2780, 312.5 ng/ml): 0%
percentage of killing ([2]; A2780, 625 ng/ml): 35.31%
percentage of killing ([2]; A2780, 1.25 ug/ml): 46.5%
percentage of killing ([2]; A2780, 2.5 ug/ml): 73.08%
percentage of killing ([2]; A2780, 5 ug/ml): 90.91%
percentage of killing ([3]; 312.5 ng/ml): 0%
percentage of killing ([3]; 625 ng/ml): 40.98%
percentage of killing ([3]; 1.25 ug/ml): 42.32%
percentage of killing ([3]; 2.5 ug/ml): 64.37%
percentage of killing ([3]; 5 ug/ml): 85.52%
duration of survival ([4]; 6 BDF-1 mice given 1×10^8 L1210 cells i.p., cells treated ex vivo with 5 ug compound, two hours, room temperature, controls died at 12-15 days): after 60 days
others (symptoms) ([4]; 6 BDF-1 mice given compound-treated L1210 cells i.p.): no symptom
killing of L1210 ex vivo (in words) ([4]; L1210 treated ex vivo with 5 ug compound, two hours, room temperature): killed completely
selectivity ratio at 36 h (Coxsakie B3 virus; African green monkey, Veo cells infected with Coxsakie B3 virus, read-out: SI (selective index, TC50/IC50)): 2.88
IC50 (Coxsakie B3 virus; CPE after 36 hours, Reed-Muench, read-out: IC50 (half inhibitory concentration for the virus)): 8.56 µg/mL
Gemicidal effect (killing rate) (T. rubrum; 12.5 μg/ml): 58%
Gemicidal effect (killing rate) (T. rubrum; 25 μg/ml): 80%
Gemicidal effect (killing rate) (T. rubrum; 50 μg/ml): 99%
Gemicidal effect (killing rate) (T. rubrum; 100 μg/ml): 100%
Gemicidal effect (killing rate) (T. mentagrophytes; 12.5 μg/ml): 60%
Gemicidal effect (killing rate) (T. mentagrophytes; 25 μg/ml): 82%
Gemicidal effect (killing rate) (T. mentagrophytes; 50 μg/ml): 99.5%
Gemicidal effect (killing rate) (T. mentagrophytes; 100 μg/ml): 100%
Gemicidal effect (killing rate) (B. subtilis; 12.5 μg/ml): 65%
Gemicidal effect (killing rate) (B. subtilis; 25 μg/ml): 85%
Gemicidal effect (killing rate) (B. subtilis; 50 μg/ml): 99%
Gemicidal effect (killing rate) (B. subtilis; 100 μg/ml): 100%
